These results are taken from US11390629B2, “1,5-disubstituted 1,2,3-triazoles are inhibitors of Rac/Cdc42 GTPases” (UNIVERSITY OF PUERTO RICO, priority 2016, dated 2022).

For one data set, the system named is Rac and Cdc42. As to conditions: cited from earlier work.
In data set [1] the target is T1, Rac1 (Homo sapiens, UniProt P63000).
T1 construct: host or cells: MDA-MB-435
The data set can be described thus: Rac activity inhibition by EHop-016 (reported), MDA-MB-435 metastatic cells. It is filed as cell-based.

For a further data set, the target named is Cdc42 (Homo sapiens, UniProt P60953). As to conditions: cited from earlier work.
Data set [2] concerns the target T1, Rac1. As to conditions: cited from earlier work.
A further data set deals with mammary tumor. As to conditions: cited from earlier work.
The conditions of data set [3]: after oral and intraperitoneal (i.p.) administration; cited from earlier work.
In another data set the test system is MDA-MB-231. The data set can be described thus: Migration inhibition, MDA-MB-231 (Table 1B). As to conditions: Homo sapiens. It is filed as cell-based.
The test system of a further data set is MDA-MB-231 cells. The data set can be described thus: Cell viability assay (CellTiter 96 / MTT), MDA-MB-231. As to conditions: Homo sapiens, MDA-MB-231, read-out: GI50 (μM) MDA-MB-231.
For the next data set, the system named is Rac. As to conditions: read-out: IC50 (effective concentrations); cited from earlier work.

SMILES strings stand for the structures. Values joined by “and” are separate entries in the source; they are usually repeats but may differ in a detail not shown here. Identical values can stand only once. Like-named read-outs stand apart in the source and are kept apart here.

Cdc42, sequence (P60953 whole entry): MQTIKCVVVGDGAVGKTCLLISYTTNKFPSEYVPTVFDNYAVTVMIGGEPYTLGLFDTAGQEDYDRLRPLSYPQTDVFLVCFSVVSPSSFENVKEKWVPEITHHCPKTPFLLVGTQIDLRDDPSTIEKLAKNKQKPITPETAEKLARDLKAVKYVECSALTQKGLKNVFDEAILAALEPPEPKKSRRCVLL

For `Cc1cc2cc(Nc3ccnc(Nc4ccc5[nH]c(C)cc5c4)n3)ccc2[nH]1` [Aza-1], the effective concentration range result with Rac and Cdc42 was “effective in the micromolar range”.
Take `COc1ccc(C2=NN(c3ccc(S(N)(=O)=O)cc3)C(c3ccccc3)C2)cc1` (centres unmarked) [CID2950007/ML141]: the effective concentration range result in the data set on Rac and Cdc42 is recorded as “effective in the micromolar range”.
For `CCn1c2ccccc2c2cc(Nc3ccnc(NCCCN4CCOCC4)n3)ccc21` [EHop-016], at Rac1 [1], the “potency relative to NSC23766” value is around 100 ×. The “concentrations inhibiting Cdc42 activity” value on Cdc42 is at least 10 µM. The “inhibition of Cdc42 activity” value at Cdc42 (higher concentrations (>10 μM)) is on record as 75%. Moreover, the IC50 at Cdc42 (read-out: IC50 for Cdc42 inhibition) was around 8000 nM. For the same compound, the IC50 at Rac1 [2] (MDA-MB-435 metastatic cells, read-out: IC50 for Rac activity) is 1100 nM and ~1100 nM. The “concentrations inhibiting Rac1 activity” value at Rac1 [2] is below 5 µM. Also, the “inhibition of Rac activity” value on Rac1 [2] (higher concentrations (>10 μM)) is given as 100%. In addition, the IC50 on Rac1 [2] (read-out: IC50 (Rac inhibitor)) is 1100 nM. In addition, the “reduction of tumor growth” value with mammary tumor (10 mg/kg BW) is recorded as around 40%. In the data set on mammary tumor (25 mg/kg BW), the “effect on mammary tumor growth, metastasis and angiogenesis” value was “reduces mammary tumor growth, metastasis, and angiogenesis”; the toxicity entry was “without apparent toxicity”. Moreover, in data set [3], the average half-life is given as 4.5 h and the bioavailability is given as around 30%.
Regarding `CCn1c2ccccc2c2cc(-n3nncc3-c3cccc(C)c3)ccc21` [I-2, 9-ethyl-3-(5-(m-tolyl)-1H-1,2,3-triazol-1-yl)-9H-carbazole], the inhibition at 1 µM in the data set with MDA-MB-231 is at most 1%. In the data set with MDA-MB-231 cells, the 50% growth inhibitory concentration (GI50) came to 1.33 µM.
The corresponding values for `CCn1c2ccccc2c2cc(-n3nncc3-c3cccc(OC)c3)ccc21` [I-3, 9-ethyl-3-(5-(3-methoxyphenyl)-1H-1,2,3-triazol-1-yl)-9H-carbazole] are at most 1% and 0.248 µM.
In the data set with MDA-MB-231, `CCn1c2ccccc2c2cc(-n3nncc3-c3cccnc3)ccc21` [I-4, 9-ethyl-3-(5-(pyridin-3-yl)-1H-1,2,3-triazol-1-yl)-9H-carbazole] gave an inhibition at 10 µM of 65.1%. In the data set on MDA-MB-231 cells, the 50% growth inhibitory concentration (GI50) is above 50 µM.
`CCn1c2ccccc2c2cc(-n3nncc3-c3ccsc3)ccc21` [I-5, 9-ethyl-3-(5-(thiophen-3-yl)-1H-1,2,3-triazol-1-yl)-9H-carbazole] returned an inhibition at 1 µM in the data set on MDA-MB-231 of 2.4%. The GI50 in the data set with MDA-MB-231 cells was found to be 0.408 µM.
Take `CCn1c2ccccc2c2cc(-n3nncc3-c3ccccn3)ccc21` [I-6, 9-ethyl-3-(5-(pyridin-2-yl)-1H-1,2,3-triazol-1-yl)-9H-carbazole]: the inhibition at 10 µM with MDA-MB-231 was 28%. Further, the concentration for 50% growth inhibition (GI50) in the data set with MDA-MB-231 cells was above 50 µM.
For `CCn1c2ccccc2c2cc(-n3nncc3-c3ccc(Oc4ccccc4)cc3)ccc21` [I-7], in that order: 30.8% and above 50 µM.
With `CCn1c2ccccc2c2cc(-n3nncc3CCO)ccc21` [I-8, 2-(1-(9-ethyl-9H-carbazol-3-yl)-1H-1,2,3-triazol-5-yl)ethan-1-ol], the GI50 in the data set with MDA-MB-231 cells is above 50 µM.
Take `CCN(CC)CCCC(C)Nc1nc(C)cc(Nc2ccc3nc(C)cc(N)c3c2)n1` (centres unmarked) [NSC23766]: the IC50 with Rac was above 75000 nM.
